Reference: US10160762B2, “6-alkyl dihydropyrazolopyrimidinone compounds as PDE2 inhibitors” (Merck Sharp & Dohme Corp., priority 2015, dated 2018)

Target: T1, human PDE2A1 (Homo sapiens, UniProt O00408)
T1 construct: GST; purchased BPS Bioscience (San Diego, Calif.) 60020; host or cells: insect cells
Assay: IMAP FP PDE assay, human PDE2A1
Assay type: biochemical
Settings: Lab B; read-out: Human PDE2 Ki (nM) Lab B
In short: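 GST-tagged human PDE2A1 from insect cells; substrate 50 nM FAM-cAMP containing 1000 nM cGMP in Tris pH 7.2/MgCl2/DTT buffer, enzyme giving 20% conversion. 60 min at room temperature, IMAP binding reagent, fluorescence polarization read. Apparent Ki from FP readings using apparent KM 10,000 nM; ten-point 3-fold titrations.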

T1 sequence (O00408 1-920 isoform O00408-2): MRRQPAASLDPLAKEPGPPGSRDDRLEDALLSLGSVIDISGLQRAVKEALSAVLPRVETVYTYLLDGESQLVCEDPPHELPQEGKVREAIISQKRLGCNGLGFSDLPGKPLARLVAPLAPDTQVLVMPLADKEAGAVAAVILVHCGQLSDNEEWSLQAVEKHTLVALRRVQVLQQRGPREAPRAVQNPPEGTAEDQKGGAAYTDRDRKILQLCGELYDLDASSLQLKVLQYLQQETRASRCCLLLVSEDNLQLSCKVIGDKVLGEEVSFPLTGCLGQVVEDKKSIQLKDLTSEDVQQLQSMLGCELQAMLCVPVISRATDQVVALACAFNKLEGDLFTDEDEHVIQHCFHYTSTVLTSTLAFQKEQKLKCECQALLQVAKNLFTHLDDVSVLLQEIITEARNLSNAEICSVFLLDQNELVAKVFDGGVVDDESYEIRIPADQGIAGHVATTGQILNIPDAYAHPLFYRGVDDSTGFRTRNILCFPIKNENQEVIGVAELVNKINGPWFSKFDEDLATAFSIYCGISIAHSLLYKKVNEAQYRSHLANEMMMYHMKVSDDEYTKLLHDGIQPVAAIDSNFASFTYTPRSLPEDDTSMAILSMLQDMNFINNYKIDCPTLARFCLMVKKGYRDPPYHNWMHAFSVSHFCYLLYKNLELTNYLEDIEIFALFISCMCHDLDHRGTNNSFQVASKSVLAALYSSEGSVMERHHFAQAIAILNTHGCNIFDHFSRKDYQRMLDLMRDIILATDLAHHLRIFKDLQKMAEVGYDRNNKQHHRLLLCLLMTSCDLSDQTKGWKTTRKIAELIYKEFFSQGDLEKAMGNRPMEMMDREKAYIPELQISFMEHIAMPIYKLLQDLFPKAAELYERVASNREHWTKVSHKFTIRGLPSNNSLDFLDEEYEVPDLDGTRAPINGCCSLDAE

Row | Ki | SMILES
1 | 1.9 nM | Cc1nc2c(c(CO)nn2C(c2ccc(C(F)(F)F)cc2)C2(C)CC2)c(=O)[nH]1 (single isomer, unassigned) [Example 24, (R)- or (S)-3-(Hydroxymethyl)-6-methyl-1-((1-methylcyclopropyl)(4-(trifluoromethyl)phenyl)methyl)-1H-pyrazolo[3,4-d]pyrimidin-4(5H)-one]
2 | 3.3 nM | Cc1nc2c(c(CO)nn2C(C)c2ccc(S(F)(F)(F)(F)F)cc2)c(=O)[nH]1 (single isomer, unassigned) [Example 77]
3 | 2 nM | Cc1nc2c(c(CC(F)F)nn2C(C)c2ccc(C(F)(F)F)cc2)c(=O)[nH]1 (single isomer, unassigned) [Example 286]
4 | 0.48 nM | Cc1nc2c(c(CF)nn2C(c2ccc(OC(F)(F)F)cc2)C2CC2)c(=O)[nH]1 (single isomer, unassigned) [Example 224, (R)- or (S)-1-(Cyclopropyl(4-(trifluoromethoxy)phenyl)methyl)-3-(fluoromethyl)-6-methyl-1,5-dihydro-4H-pyrazolo[3,4-d]pyrimidin-4-one]
5 | 1.8 nM | Cc1nc2c(c(CO)nn2C(C)c2ccc(C(F)(F)F)cc2Cl)c(=O)[nH]1 (single isomer, unassigned) [Example 19, (S)- or (R)-1-(1-(2-Chloro-4-(trifluoromethyl)phenyl)ethyl)-3-(hydroxymethyl)-6-methyl-1H-pyrazolo[3,4-d]pyrimidin-4(5H)-one]
6 | 2.1 nM | Cc1nc2c(c(CO)nn2C(C)c2ccc(C(F)(F)F)cc2F)c(=O)[nH]1 (single isomer, unassigned) [Example 17, (S)- or (R)-1-(1-(2-Fluoro-4-(trifluoromethyl)phenyl)ethyl)-3-(hydroxymethyl)-6-methyl-1H-pyrazolo[3,4-d]pyrimidin-4(5H)-one]
